Experimental data published in patent US9162993B2, “Preparation and pharmaceuticals of biphenyl benzamide-derived derivatives” (NATIONAL DEFENSE MEDICAL CENTER, priority 2012, dated 2015).

Columns and labels:
NO production = experiment: Measurement of NO concentrations (Griess reaction) in porcine chondrocytes; format: cell-based; conditions: Sus scrofa, Chondrocyte, nitrite in supernatants, read-out: anti-inflammatory IC50 (μM) on NO production
Protocol: Porcine cartilage was obtained from the hind leg joints of pigs. The synthesis of chondrocytes from cartilage was performed according to our previous report. After enzymatic digestion of articular cartilage with 2 mg/mL protease in serum-free Dulbecco's modified Eagle's medium (DMEM)/antibiotics, the specimens were then digested overnight with 2 mg/mL collagenase I and 0.9 mg/ml, hyaluronidase in DMEM containing 10% fetal bovine serum (FBS). The cells were collected, passed through a cell strainer (Becton Dickinson, Mountain View, Calif., USA), and cultured in DMEM containing 10% […] and antibiotics for 3-4 days before use.
The measurement of NO release was reflected by determination of its stable end product, nitrite, in supernatants. The Griess reaction was performed with the concentrations of nitrite measured by a spectrophotometer. In brief, an aliquot (100 μL) of culture supernatant was incubated with 50 μL of 0.1% sulfanilamide in 5% phosphoric acid and 50 μL of 0.1% N-1-naphthyl-ethylenediamine dihydrochloride. After 10 min of incubation at room temperature, the absorbance was measured at 550 nm wavelength with a plate reader (recall, Grodig, […]).

[1] = MTT assay, RAW264.7 cell viability; format: cell-based; conditions: mouse; RAW 264.7 cells; cytotoxic concentration that produces 50% cell death
Protocol: (§1) The compounds 1 to 24 of the present invention is tested by three pharmacological activity tests as follows: (1) MTT assay to test the RAW264.7 cell (murine monocyte/macrophage cell line) viability; (2) Tartrate-resistant acid phosphatase (TRAP) staining and activity analysis to investigate the cell differentiation activity; (3) The activity test of bone resorption (Pit formation assay).
(§2) The synthesized difunisal derivatives, compounds 1 to 24, were pharmacologically tested to be identified the relationship between their structure and activity. Cell viability was measured by MTT assay in RAW 264.7 cells upon treatment with compounds at 5 μM. CC50 is the cytotoxic concentration that produces 50% (CC50) cell death. […] The multinucleated osteoclasts could be formed by RANKL-induced macrophage cell line […]. RAW 264.7 cells were cultured with the indicated in the presence of drug and RANKL (100 ng/mL). Numbers of TRAP-positive (TRAP^+) multinucleated cells (MNCs) were counted in the presence of RANKL to identify the relationship between osteoclast and bone formation. […] The compound 16 performed the best inhibitory effect in the TRAP staining. The compound 16 was a derivate from compound 4 and its structure was related to compound 4. Therefore, the compound 4 and 16 were performed by TRAP assay to evaluate the effect on osteoclast differentiation by different concentration of compounds. […] According to above result, it can be speculated that: (1) Due to different substitutes on benzene ring of difunisal, the inhibitory ability of RANKL-induced osteoclast differentiation would be different. (2) Due to the electron-withdrawing group substitutes of R1 and R4 on benzene ring, or electron-withdrawing group substitutes derivatives of R2 on benzene ring, such as compound 4. (R1═F and R4═F), compound 6 (R2═CF3), compound 9 (R2═CN) and compound 16 (R1═F and R4═F), (3) compound 4 (R1═F and R4═F) and compound 6 (R2═CF3), a cyclic derivate compound 16 (R1═F and R4═F) and compound 18 (R2═CF3), the inhibitory activity would be stronger.

RAW 264.7 cells = experiment: MTT assay, RAW264.7 cell viability; format: cell-based; conditions: MTT assay, compounds at 5 μM
Protocol: as §1, §2

[2] = test system: RANKL-induced osteoclast differentiation in RAW 264.7 cells; experiment: TRAP staining, RANKL-induced osteoclast differentiation (TRAP+ multinucleated cells); format: cell-based, murine; conditions: Mus musculus; for inhibition at 5 µM: RAW264.7, RAW 264.7 cells, RANKL (100 ng/mL), compounds at 5 μM, TRAP-positive multinucleated cells, read-out: Inhibition of MNCs (%); for IC50: RAW264.7, different concentrations of compound, FIG. 1A, read-out: TRAP inhibitory activity IC50
Protocol: as §1, §2

[3] = test system: RANKL-induced resorption of osteoclast (RAW264.7 cells); experiment: Pit formation assay (bone resorption activity); format: cell-based, murine; conditions: 5 μM, dentine slices, 4 days, FIG. 1B
Protocol: as §1
By using pit formation assay, compounds 4 and 16 have effect on inhibition of resorption of osteoclast. RAW264.7 cells were cultured without compounds (compound 4 or compound 16, 5 μM) or treated with compounds (compound 4 or compound 16, 5 μM) in 24 well dentine slices plates in the presence of RANKL after 4 days, to identify the ability of resorption of osteoclast by observing the resorption pits formation. […] It was obvious that compound 4 or 16 could inhibit the RANKL-induced resorption of osteoclast (FIG. 3A to D).

## O=C(Nc1cc(F)ccc1F)c1cc(-c2ccc(F)cc2F)ccc1O [compound 4, N-(2,5-difluorophenyl)-2′,4′-difluoro-4-hydroxy-[1,1′-biphenyl]-3-carboxamide]
NO production
  IC50: 0.71 µM
[1]
  CC50: 14.6 µM
RAW 264.7 cells
  Cell viability (%): 102.46 ± 1.10%
[2]
  inhibition at 5 µM: 67.3 ± 4.38%
  IC50: 3.89 µM
[3]
  resorbed area compared to the cell cultured without drug in the presence of RANKL: 23.11±2.25%

## O=c1oc2ccc(-c3ccc(F)cc3F)cc2c(=O)n1-c1cc(F)ccc1F [compound 16, 6-(2,4-difluorophenyl)-3-(2,5-difluorophenyl)-2H-benzo[e][1,3]oxazine-2,4(3H)-dione]
NO production
  IC50: 1.15 µM
[1]
  CC50: 10.8 µM
RAW 264.7 cells
  Cell viability (%): 86.60 ± 5.69%
[2]
  inhibition at 5 µM: 86.8 ± 1.74%
  IC50: < 2.5 µM
[3]
  resorbed area compared to the cell cultured without drug in the presence of RANKL: 20.11±1.51%
